One data set deals with recombinant human SK. The experiment in a line: Inhibition of recombinant human SK, LC/MS/MS assay. The following applies: 6 μg/ml compound. Type of data set: biochemical. A digest of the protocol: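 Enzyme incubated with unlabeled sphingosine and ATP (1 mM, as in the radiometric format) for 30 min, then stopped and extracted with acetonitrile. S1P quantified by C8 reverse-phase HPLC–MS/MS against C17 sphingosine and C17 S1P internal standards using calibration curves.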

The subject of data set [1] is MCF-7 human breast adenocarcinoma cells. In words: Cytotoxicity, SRB binding assay. The class given is cell-based. The following applies: MCF7, inhibition of cell proliferation, 48 h, read-out: MCF-7 IC50. Summed up: (§1)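 Cells exposed to varying compound doses for 48 h, then survival measured by sulforhodamine B staining. IC50 is the concentration giving 50% proliferation inhibition, in μM, as mean±sd of replicate trials.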

In data set [2] the test system is C57BL/6 mice, DSS model of IBD. In words: Acute DSS-colitis model. Type of data set: in vivo, mouse. The following applies: 2% DSS, 50 mg/kg oral daily. As to the method:
We have conducted experiments with SK inhibitors using the dextran sulfate sodium (DSS) model of IBD. In these experiments, male C57BL/6 mice were provided with standard rodent diet and water ad libitum. After their acclimation, the animals were randomly divided into groups of 5 or 6 for DSS (40,000 MW from ICN Biomedicals, Inc., Aurora, Ohio)—and drug-treatment. The SK inhibitors were dissolved in PEG400, and given once daily by oral gavage in a volume of 0.1 mL per dose. Dipentum, an FDA-approved anti-colitis drug whose active ingredient, olsalazine, is converted to 5-aminosalicylic acid in vivo, was used as a positive control. The mice were given normal drinking water or 2% DSS and treated orally with an SK inhibitor or Dipentum at a dose of 50 mk/kg daily. The body weight of each animal was measured each day, and the Disease Activity Index (DAI) was scored for each animal on Days 4-6. On Day 6, the animals were sacrificed by cervical dislocation and the entire colon was removed and measured to the nearest 0.1 cm. Portions of the colons were then fixed, sectioned and their histologies were assessed on a blinded basis to determine their Histology Score. Other portions of the colons were used for biochemical analyses of inflammation markers.

Data set [3] relates to mice, multiple cycles of DSS-induced inflammation. In words: Chronic DSS-colitis model (35-day). Type of data set: in vivo, mouse. As to the method: FIG. 13. Effects of Compound 62 on the DAI in the chronic DSS-colitis model. Mice received 2 cycles (7 days per cycle) of DSS (1.5% cycle 1 and 1% cycle 2), 2 cycles of normal drinking water and were randomized by DAI on Day 28 into groups of 8 mice. The mice were then treated as follows: No DSS (▪)—normal drinking water and orally dosed with PEG400 every day for 7 days (water control); DSS alone (▴)—drinking water containing 1.5% DSS and orally dosed with PEG daily for 7 days; DSS+Compound 62 (▾)—drinking water containing 1.5% DSS and orally dosed with Compound 62 (50 mg/kg) every day for 7 days; DSS+Dipentum (♦)—drinking water containing 1.5% DSS and orally dosed with Dipentum (50 mg/kg). *p<0.001 versus No DSS group.
A 35-day model of IBD was used to evaluate the effectiveness of the SK inhibitors in mice that experience multiple cycles of DSS-induced inflammation. This chronic model is similar to the acute model, except that the DSS concentration in the drinking water is lower and animals receive periodic exposure to DSS (DSS on days 1-7, water on Days 8-13, DSS on day 14-21, water on Days 22-27 and then DSS until the completion of the study on Day 35). In these experiments, treatment of the mice with an SK inhibitor or Dipentum began on Day 28 and continued daily until the completion of the study. The DAI index was monitored every other day until Day 28 and then daily until Day 35. Animals were sacrificed on Day 35, and changes in the colon length and cytokine profiles were measured.

Data set [4] concerns MCF-10A non-transformed human breast epithelial cells. In words: Cytotoxicity, SRB binding assay. Type of data set: cell-based. The following applies: inhibition of cell proliferation, 48 h, read-out: MCF-10A IC50. Summed up:
as §1

In data set [5] the test system is mouse JC mammary adenocarcimona cell line growing subcutaneously in Balb/c mice. The following applies: JC tumor model, intraperitoneal (ip) or oral (po) administration. As to the method: The antitumor activity of the representative SK inhibitors were evaluated using a syngeneic tumor model that uses the mouse JC mammary adenocarcimona cell line growing subcutaneously in immunocompetent Balb/c mice (Lee et al., 2003, Oncol Res 14: 49).
In FIG. 1, Balb/c mice, 6-8 weeks old, were injected subcutaneously with 10^6 JC cells suspended in phosphate-buffered saline. The SK inhibitors Compounds 62 and 57 were dissolved in PEG400 and administered to mice every-other day at a dose of 100 mg/kg. Body weights and tumor volumes were monitored daily. In FIG. 1, tumor growth is expressed as the tumor volume relative to day 1 for each animal.

In the case of `Oc1ccc(NCC23CC4CC(C2)CC(c2ccc(Cl)cc2)(C4)C3)cc1` [Compound 76, 4-{[3-(4-Chloro-phenyl)-adamantan-1-ylmethyl]-amino}-phenol], the melting point was 138 to 140 °C. Also, the “Recombinant SK (% inhibition)” value in the data set on recombinant human SK came to 42%. Also, in data set [1], the IC50 was found to be 5 µM.

`O=C(O)c1cc(/N=N/c2ccc(O)c(C(=O)O)c2)ccc1O` [Dipentum, olsalazine, reference compound]: in data set [2], the “elevations of colon pro-inflammatory proteins IFN-γ, IL-1β, IL-6 and TNFα” value is “attenuated”; the “increase in colon myeloperoxidase (MPO) activity” value is on record as “markedly attenuated”. Further, in data set [2] (Day 6), the “Histology Score vs DSS-alone animals” value was “consistently lower” and the colon length result was “intermediate length”. For the same compound, the “Disease Activity Index (intensity of IBD manifestations)” value in data set [2] (Days 4-6) was “reduced”. The compound further returned a colon length in data set [3] (50 mg/kg oral daily Day 28-35, DSS alone 4.9±0.2, water 7.8±0.3) of 6.1±0.2 cm. Besides, the “increase in DAI” value in data set [3] (50 mg/kg oral daily from Day 28 to Day 35, third DSS exposure) is “significantly suppressed”. The “serum level of IL-6” value in data set [3] (at sacrifice, Day 35) is listed as “reduced”. Moreover, in data set [3] (treated during the final DSS cycle), the “colon levels of pro-inflammatory cytokines TNFα, IL-1β, IFN-γ and IL-6” value is “equivalent to the DSS-alone group”.

For the compound `CC(NC1CCN(C)CC1)C12CC3CC(CC(c4ccc(Cl)cc4)(C3)C1)C2` (stereo not drawn) [Compound 107, {1-[3-(4-Chloro-phenyl)-adamantan-1-yl]-ethyl}-(1-methyl-piperidin-4-yl)-amine], the IC50 in data set [4] and in data set [1] was 1 µM throughout. Further, the In vivo activity entry in data set [5] is recorded as “active - ip”.

In the case of `N#CCc1ccc(NC(=O)C23CC4CC(C2)CC(c2ccc(Cl)cc2)(C4)C3)cc1` [Compound 11, 3-(4-Chloro-phenyl)-adamantane-1-carboxylic acid (4-cyanomethyl-phenyl)-amide], the “Recombinant SK (% inhibition)” value in the data set with recombinant human SK is listed as 17%. In addition, the IC50 in data set [4] and in data set [1] was 87 µM in each case.

In the case of `Clc1ccc(C23CC4CC(CC(CNCCN5CCOCC5)(C4)C2)C3)cc1` [Compound 87, [3-(4-Chloro-phenyl)-adamantan-1-ylmethyl]-(2-morpholin-4-yl-ethyl)-amine], the “Recombinant SK (% inhibition)” value with recombinant human SK turned out to be 75%. For the same compound, the IC50 was found to be 33 µM in data set [4] and 38 µM in data set [1].

For `CN1CCC(NC(=O)C23CC4CC(C2)CC(c2ccc(Cl)cc2)(C4)C3)CC1` [Compound 51, 3-(4-Chloro-phenyl)-adamantane-1-carboxylic acid (1-methyl-piperidin-4-yl)-amide], the “Recombinant SK (% inhibition)” value with recombinant human SK is recorded as 84%. The results for the IC50 in data set [4] and in data set [1] were 25 µM and 8 µM, respectively. The In vivo activity entry in data set [5] was “active - ip and po”.

As to `O=C(/C=C/c1ccc2ccccc2c1)C12CC3CC(C1)CC(c1ccc(Cl)cc1)(C3)C2` [Compound 133, 1-[3-(4-Chloro-phenyl)-adamantan-1-yl]-3-naphthalen-2-yl-propenone], the melting point was in the range of 82 to 84 °C. In addition, the “Recombinant SK (% inhibition)” value in the data set with recombinant human SK is on record as 36%. Besides, in data set [1], the IC50 is 13 µM.

As to `O=C(NCCc1ccc(O)c(O)c1)C12CC3CC(C1)CC(c1ccc(Cl)cc1)(C3)C2` [Compound 44, 3-(4-Chloro-phenyl)-adamantane-1-carboxylic acid [2-(3,4-dihydroxy-phenyl)-ethyl]-amide], the IC50 in data set [4] was 9 µM; in data set [1], 6 µM. Further, in data set [5], the In vivo activity result is reported as “active - ip”.

`O=C(Nc1ccccc1)C12CC3CC(C1)CC(c1ccc(Cl)cc1)(C3)C2` [Compound 4, 3-(4-Chloro-phenyl)-adamantane-1-carboxylic acid phenylamide]: the “Recombinant SK (% inhibition)” value in the data set with recombinant human SK is 44%. In addition, the IC50 in data set [4] was 137 µM; in data set [1], 72 µM.

In the case of `Clc1ccc(-c2cnc(NCC34CC5CC(C3)CC(c3ccc(Cl)cc3)(C5)C4)s2)cc1` [Compound 90, [3-(4-Chloro-phenyl)-adamantan-1-ylmethyl]-[5-(4-chloro-phenyl)-thiazol-2-yl]-amine], the “Recombinant SK (% inhibition)” value in the data set on recombinant human SK was 26%. Besides, the IC50 in data set [4] came to 107 µM; in data set [1], 96 µM.

With `CC(C)(C)c1ccc(CNC(=O)C23CC4CC(C2)CC(c2ccc(Cl)cc2)(C4)C3)cc1` [Compound 13, 3-(4-Chloro-phenyl)-adamantane-1-carboxylic acid 4-tert-butyl-benzylamide], the “Recombinant SK (% inhibition)” value in the data set on recombinant human SK is recorded as 78%. Besides, the half-inhibitory concentration (IC50) in data set [4] came out at 115 µM; in data set [1], 51 µM.

Take `O=C(NCc1ccccc1)C12CC3CC(C1)CC(c1ccc(Cl)cc1)(C3)C2` [Compound 12, 3-(4-Chloro-phenyl)-adamantane-1-carboxylic acid benzylamide]: the “Recombinant SK (% inhibition)” value with recombinant human SK was 36%. For the same compound, the IC50 is 99 µM in data set [4] and 11 µM in data set [1].

`CCn1c2ccccc2c2cc(/C=C/C(=O)C34CC5CC(C3)CC(c3ccc(Cl)cc3)(C5)C4)ccc21` [Compound 136, 1-[3-(4-Chloro-phenyl)-adamantan-1-yl]-3-(9-ethyl-9H-carbazol-3-yl)-propenone] registered a melting point of 138 to 140 °C. Also, in data set [1], the IC50 is 8 µM.

As for `CC(NC(=O)C12CC3CC(C1)CC(c1ccc(Cl)cc1)(C3)C2)c1ccc(Br)cc1` (stereo not drawn) [Compound 29, 3-(4-Chloro-phenyl)-adamantane-1-carboxylic acid [1-(4-bromo-phenyl)-ethyl]-amide], the “Recombinant SK (% inhibition)” value in the data set on recombinant human SK amounted to 55%. Besides, the 50% inhibitory concentration (IC50) in data set [4] came to 106 µM; in data set [1], 7 µM.

Take `O=C(Nc1nc(-c2ccc(Cl)cc2)cs1)C12CC3CC(CC(C3)C1)C2` [Compound 69, Adamantane-1-carboxylic acid [4-(4-chloro-phenyl)-thiazol-2-yl]-amide]: the “Recombinant SK (% inhibition)” value in the data set with recombinant human SK is on record as 40%. For the same compound, the values for the IC50 in data set [4] and in data set [1] were 106 µM and 30 µM, respectively.

On to `CC(C)NC(=O)C12CC3CC(C1)CC(c1ccc(Cl)cc1)(C3)C2` [Compound 1, 3-(4-Chloro-phenyl)-adamantane-1-carboxylic acid isopropylamide], for which the “Recombinant SK (% inhibition)” value with recombinant human SK stood at 38%. For the same compound, the IC50 in data set [4] stood at 151 µM; in data set [1], 23 µM.

As for `O=C(NCCc1ccncc1)C12CC3CC(C1)CC(c1ccc(Cl)cc1)(C3)C2` [Compound 64, 3-(4-Chloro-phenyl)-adamantane-1-carboxylic acid (2-pyridin-4-yl-ethyl)-amide], the “Recombinant SK (% inhibition)” value in the data set on recombinant human SK is 41%. Moreover, the 50% inhibitory concentration (IC50) in data set [4] came to 20 µM; in data set [1], 8 µM.

For the compound `O=C(NCCc1ccc(Br)cc1)C12CC3CC(C1)CC(c1ccc(Cl)cc1)(C3)C2` [Compound 39, 3-(4-Chloro-phenyl)-adamantane-1-carboxylic acid [2-(4-bromo-phenyl)-ethyl]-amide], in the data set on recombinant human SK, the “Recombinant SK (% inhibition)” value was determined as 19%. For the same compound, the values for the IC50 in data set [4] and in data set [1] were 106 µM and 15 µM, respectively.

In the case of `O=C(Nc1nc2cc(Cl)ccc2o1)C12CC3CC(C1)CC(c1ccc(Cl)cc1)(C3)C2` [Compound 72, 3-(4-Chloro-phenyl)-adamantane-1-carboxylic acid (5-chloro-benzooxazol-2-yl)-amide], in the data set on recombinant human SK, the “Recombinant SK (% inhibition)” value amounted to 14%. Also, the IC50 came to 6 µM in data set [4] and 2 µM in data set [1].

(Values after patent US8557800B2, “Sphingosine kinase inhibitors” (Apogee Biotechnology Corporation, priority 2005, dated 2013).)
